Laboratory results: paper PMC8513424 (Laryngoscope Investigative Otolaryngology, 2021)

Tested on: NF2‐associated or sporadic VS or meningiomas
Assay: Pilot 1 tumor volumetric measurement by MRI
Format: in vivo, human
[1] = Patient 1.4, Left IAC Schwannoma
[2] = Patient 1.4, Left posterior fossa Meningioma
[3] = Patient 1.4, Let foramen magnum Meningioma
[4] = Patient 1.4, Right IAC Schwannoma
[5] = Patient 1.4, Right anterior falx Meningioma
[6] = Patient 1.5, 134 days on AR‐42, Right petroclinoid Meningioma
[7] = Patient 1.5, Right petroclinoid Meningioma
[8] = Patient 1.6, 58 days on AR‐42, Right IAC Schwannoma
[9] = Patient 1.6, Left IAC Schwannoma
[10] = Patient 1.6, Right IAC Schwannoma
[11] = Patient 1.7, Left IAC Schwannoma
[12] = Patient 1.7, Left prepontine cistern Meningioma
[13] = post‐treatment vs on AR‐42, of 11
[14] = pre‐treatment to on‐treatment, of 15

Structure (SMILES): CC(C)[C@H](C(=O)Nc1ccc(C(=O)NO)cc1)c1ccccc1 [AR‐42]
- Change in GR Pre to post Rx [1]: 20%
- Est. annual growth rate On Rx (%) [1]: 92%
- Est. annual growth rate Post Rx [1]: 122%
- Change in GR Pre to On Rx (%) [2]: −170%
- Change in GR Pre to post Rx [2]: −125%
- Est. annual growth rate On Rx (%) [2]: −37%
- Est. annual growth rate Post Rx [2]: 8%
- Change in GR Pre to On Rx (%) [3]: −158%
- Change in GR Pre to post Rx [3]: −138%
- Est. annual growth rate On Rx (%) [3]: −30%
- Est. annual growth rate Post Rx [3]: −10%
- Change in GR Pre to On Rx (%) [4]: −133%
- Est. annual growth rate On Rx (%) [4]: 18%
- Change in GR Pre to On Rx (%) [5]: 0%
- Change in GR Pre to post Rx [5]: 0%
- Est. annual growth rate On Rx (%) [5]: 0%
- Est. annual growth rate Post Rx [5]: 0%
- % Volume growth on Rx [6]: 104%
- On Rx response [6]: PD (progressive disease (>20% increase in volume))
- Change in GR Pre to On Rx (%) [7]: 41%
- Change in GR Pre to post Rx [7]: −232%
- Est. annual growth rate On Rx (%) [7]: 241%
- Est. annual growth rate Post Rx [7]: −32%
- % Volume growth on Rx (Patient 1.6, 58 days on AR‐42, Left IAC Schwannoma): 15%
- % Volume growth on Rx [8]: 40%
- On Rx response [8]: PD (progressive disease (>20% increase in volume))
- Change in GR Pre to On Rx (%) [9]: 64%
- Change in GR Pre to post Rx [9]: 32%
- Est. annual growth rate On Rx (%) [9]: 93%
- Est. annual growth rate Post Rx [9]: 61%
- Change in GR Pre to On Rx (%) [10]: 187%
- Est. annual growth rate On Rx (%) [10]: 245%
- % Volume growth on Rx (Patient 1.7, 10 days on AR‐42, Left IAC Schwannoma): 4%
- % Volume growth on Rx (Patient 1.7, 10 days on AR‐42, Left prepontine cistern Meningioma): −9%
- Change in GR Pre to On Rx (%) [11]: 13%
- Est. annual growth rate On Rx (%) [11]: 50%
- Change in GR Pre to On Rx (%) [12]: −120%
- Est. annual growth rate On Rx (%) [12]: −113%
- Share of tumors with stable growth (estimated percent annual growth rates): 20%
- Meningiomas progressed on AR‐42 (of 7 meningiomas): three
- Meningiomas stable or regressed on AR‐42 (of 7 meningiomas): Four
- VS progressed on AR‐42 (of 8 VS): three
- VS stable on AR‐42 (of 8 VS): Five
- Tumors with stable disease on AR‐42 (of 15 evaluable tumors): eight
- Share of tumors with partial response (of 15 tumors): 7%
- Decrease in volume of the tumor with partial response (on AR‐42): 24%
- Duration of partial response (posterior fossa meningioma of Patient 1.4): 3 years
- Tumors that rebounded in growth rate (increased more than 20%) after termination [13]: 4
- Tumors with growth rate decreased after termination [13]: 3
- Tumors with growth rate not changed after termination [13]: 4
- Tumors with increased growth rates (>20% increase) [14]: four
- Tumors with reduced growth rates (>20% decrease in growth rate) [14]: eight
- Tumors with stable growth rates (± <20% change) [14]: three
- Median reduction in annual growth rate (pre‐treatment to on‐treatment, P = 0.259): −54%
